US12263171B2, “7-, 8-, and 10-substituted amino triazolo quinazoline derivatives as adenosine receptor antagonists, pharmaceutical compositions and their use” (Merck Sharp & Dohme LLC, priority 2018, dated 2025)

Experiments:
[1] = target: human A2a adenosine receptor (Homo sapiens (Human), UniProt P29274); assay: A2a receptor affinity radioligand binding assay ([3H] SCH58261, membranes from HEK293 or CHO cells); settings: unstarred values: radioligand binding
Procedure: The A2a receptor affinity binding assay measured the amount of binding of a tritiated ligand with high affinity for the A2a adenosine receptor to membranes made from HEK293 or CHO cells recombinantly expressing the human A2a adenosine receptor, in the presence of varying concentrations of a compound of the invention.
Measurement of A2a Binding Affinity Using Radioligand Binding
148 μL, (5 μg/mL) membranes (Perkin Elmer, Cat. No. RBHA2aM4001A) and 2 μL compounds of the invention to be tested (test compound) were transferred to individual wells of a 96-well polypropylene assay plate and incubated for 15 to 30 minutes at room temperature. [^3H] SCH58261 ((7-(2-phenylethyl)-5-amino-2-(2-furyl)-pyrazolo-[4,3-e]-1,2,4-triazolo[1,5-c]pyrimidine)) was diluted in assay buffer (50 mM Tris pH 7.4, 10 mM MgCl2, 0.005% Tween20) to a concentration of 4 nM and 50 μL transferred to each well of the assay plate. […] The assay plate was incubated at room temperature for 60 minutes with agitation. […] Filtering was achieved by aspirating the contents of the assay plate for 5 seconds, then washing and aspirating the contents three times with ice-cooled wash buffer (50 mM Tris-HCl pH 7.4, 150 mM NaCl) and allowing the vacuum manifold to dry the plate for 30 seconds. The filter plate was incubated for at least 1 hour at 55° C. and allowed to dry. The bottom of the filter plate was sealed with backing tape. 40 μL. […] The plate was incubated for at least 20 minutes, and then the amount of radioactivity remaining in each well was determined using a TopCown® (Perkin Elmer) scintillation counter. After normalization to total and non-specific binding, the percent effect at each compound concentration was calculated. The plot of percent effect versus the log of compound concentration was analyzed electronically using a 4-parameter logistic fit based on the Levenberg-Marquardt algorithm to generate IC50 values.

[2] = target: human A2b adenosine receptor (Homo sapiens (Human), UniProt P29275); assay: A2b radioligand filtration binding assay (tritiated proprietary A2b antagonist, HEK293 membranes); settings: unstarred values: radioligand binding
Chain of human A2b adenosine receptor (P29275 whole entry): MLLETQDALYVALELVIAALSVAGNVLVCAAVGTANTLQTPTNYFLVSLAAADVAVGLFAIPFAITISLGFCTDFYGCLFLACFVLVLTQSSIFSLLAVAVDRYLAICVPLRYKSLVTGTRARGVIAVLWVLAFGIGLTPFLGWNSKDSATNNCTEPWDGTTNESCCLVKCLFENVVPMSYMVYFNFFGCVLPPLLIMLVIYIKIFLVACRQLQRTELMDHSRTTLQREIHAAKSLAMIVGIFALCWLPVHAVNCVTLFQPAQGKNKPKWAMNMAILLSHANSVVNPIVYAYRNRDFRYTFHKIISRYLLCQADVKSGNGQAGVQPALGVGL
Procedure: Measurement of A2b Binding Affinity
The reported affinity of the compounds of the invention for the human A2b adenosine receptor was determined experimentally using a radioligand filtration binding assay. This assay measures the amount of binding of a tritiated proprietary A2b receptor antagonist, in the presence and absence of a compound of the invention, to membranes made from HEK293 cells recombinantly expressing the human A2b adenosine receptor (Perkin Elmer, Cat. No. ES-013-C).
The filter plate was incubated for at least 1 hour at 55° C. and allowed to dry. The bottom of the filter plate was then sealed with backing tape. […] The plates were then incubated for at least 20 minutes, and then the amount of radioactivity remaining in each well was determined using a TopCount® (Perkin Elmer) scintillation counter. After normalization to total and non-specific binding, the percent effect at each compound concentration was calculated. The plot of percent effect versus the log of compound concentration was analyzed electronically using a 4-parameter logistic fit based on the Levenberg-Marquardt algorithm to generate IC50 values.

Chain of human A2a adenosine receptor (P29274 whole entry): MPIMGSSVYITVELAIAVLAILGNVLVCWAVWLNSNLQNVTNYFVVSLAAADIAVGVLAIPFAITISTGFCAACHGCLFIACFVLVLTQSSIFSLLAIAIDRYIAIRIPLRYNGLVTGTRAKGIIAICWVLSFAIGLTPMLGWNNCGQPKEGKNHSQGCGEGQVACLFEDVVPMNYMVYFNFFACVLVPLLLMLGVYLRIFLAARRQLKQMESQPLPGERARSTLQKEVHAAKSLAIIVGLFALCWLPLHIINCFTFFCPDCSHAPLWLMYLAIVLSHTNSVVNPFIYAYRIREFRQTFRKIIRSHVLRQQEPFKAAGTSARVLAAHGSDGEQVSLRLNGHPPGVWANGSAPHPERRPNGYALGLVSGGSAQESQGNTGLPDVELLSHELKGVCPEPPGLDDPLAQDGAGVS

Compound	IC50 [1] [nM]	IC50 [2] [nM]
COc1ccc2c(c1)nc(N)n1nc([C@H]3C[C@@H](F)CN(c4cnn(CC(C)(C)O)c4)C3)nc21 [Example 196A]	2.9	802
COc1ccc2c(nc(N)n3nc(C4CCCN(c5cnn(C)c5)C4)nc23)c1F (single isomer, unassigned) [Example 166, (R or S)-7-fluoro-8-methoxy-2-(1-(1-methyl-1H-pyrazol-4-yl)piperidin-3-yl)-[1,2,4]triazolo[1,5-c]quinazolin-5-amine]	18	234
C[C@H]1CC[C@@H](c2nc3c4ccc(Cl)cc4nc(N)n3n2)CN1c1cnn(CC(C)(C)O)c1 [Example 203, 1-(4-((2S,5R)-5-(5-amino-8-chloro-[1,2,4]triazolo[1,5-c]quinazolin-2-yl)-2-methylpiperidin-1-yl)-1H-pyrazol-1-yl)-2-methylpropan-2-ol]	0.7	1.7
COc1cccc2c1nc(N)n1nc([C@@H]3CCCN(c4cnn(C5CCOC5)c4)C3)nc21 (single isomer, unassigned) [Example 57B]	0.3	89.3
COc1ccc2c(c1)nc(N)n1nc([C@@H]3CCCN(c4cnn([C@H](C)C(C)(C)O)c4C)C3)nc21 [Example 189A, (R)-3-(4-((R)-3-(5-amino-8-methoxy[1,2,4]triazolo[1,5-c]quinazolin-2-yl)piperidin-1-yl)-5-methyl-1H-pyrazol-1-yl)-2-methylbutan-2-ol]	0.6	228
COc1ccc2c(c1)nc(N)n1nc([C@@H]3CCCN(c4cn([C@@H](C)C(C)(C)O)nc4C)C3)nc21 [Example 186B, (S)-3-(4-((R)-3-(5-amino-8-methoxy-[1,2,4]triazolo[1,5-c]quinazolin-2-yl)piperidin-1-yl)-3-methyl-1H-pyrazol-1-yl)-2-methylbutan-2-ol]	0.4	323
COc1cccc2c1nc(N)n1nc([C@@H]3CCCN(c4ccc(F)cn4)C3)nc21 [Example 115, (R)-2-(1-(5-fluoropyridin-2-yl)piperidin-3-yl)-7-methoxy-[1,2,4]triazolo[1,5-c]quinazolin-5-amine]	1.2	59.1
C[C@H]1CC[C@@H](c2nc3c4ccc(Br)cc4nc(N)n3n2)CN1c1cnn(CC(C)(C)O)c1 (single isomer, unassigned) [Example 198, 1-(4-((2S,5R or 2R,5S)-5-(5-amino-8-bromo-[1,2,4]triazolo[1,5-c]quinazolin-2-yl)-2-methylpiperidin-1-yl)-4H-pyrazol-1-yl)-2-methylpropan-2-ol]	0.4	8.4
COc1cccc2c1nc(N)n1nc([C@@H]3CCCN(c4cnn(C(C)C(C)(C)O)c4)C3)nc21 (single isomer, unassigned) [Example 61A]	0.2	45.2
COc1cccc2c1nc(N)n1nc([C@H]3CCO[C@@H](c4cnn(C)c4)C3)nc21 [Example 139A]	167	2460
COc1cccc2c1nc(N)n1nc([C@@H]3CCCN(c4nnc5n4CCNC5)C3)nc21 [Example 71, (R)-7-methoxy-2-(1-(5,6,7,8-tetrahydro-[1,2,4]triazolo[4,3-a]pyrazin-3-yl)piperidin-3-yl)-[1,2,4]triazolo[1,5-c]quinazolin-5-amine]	0.2	5610
COc1cccc2c1nc(N)n1nc([C@@H]3CCO[C@H](c4cnn(C)c4)C3)nc21 [Example 139D]	58.3	5290
COc1cccc2c1nc(N)n1nc([C@@H]3CCCN(c4ncn(CC(C)(C)O)n4)C3)nc21 [Example 64, (R)-1-(3-(3-(5-amino-7-methoxy[1,2,4]triazolo[1,5-c]quinazolin-2-yl)piperidin-1-yl)-1H-1,2,4-triazol-1-yl)-2-methylpropan-2-ol]	0.1	374
C[C@H]1CC[C@@H](c2nc3c4ccc(C5CCC5)cc4nc(N)n3n2)CN1c1cnn(CC(C)(C)O)c1 [Example 209, 1-(4-((2S,5R)-5-(5-amino-8-cyclobutyl-[1,2,4]triazolo[1,5-c]quinazolin-2-yl)-2-methylpiperidin-1-yl)-1H-pyrazol-1-yl)-2-methylpropan-2-ol]	28.7	328
COc1cccc2c1nc(N)n1nc([C@@H]3CCCN(c4cnn(C5CCC5O)c4)C3)nc21 (single isomer, unassigned) [Example 60B]	2	181
COc1cccc2c1nc(N)n1nc([C@@H]3CCCN(c4cnn(C5CCOCC5)c4)C3)nc21 [Example 21, (R)-7-methoxy-2-(1-(1-(tetrahydro-2H-pyran-4-yl)-1H-pyrazol-4-yl)piperidin-3-yl)-[1,2,4]triazolo[1,5-c]quinazolin-5-amine]	0.6	111
Cc1ccc2c(c1)nc(N)n1nc([C@@H]3CC[C@H](C)N(c4cnn(CC(C)(C)O)c4)C3)nc21 (single isomer, unassigned) [Example 206, 1-(4-((2S, 5R or 2R,5S)-5-5-amino-8-methyl-[1,2,4]triazolo[1,5-c]quinazolin-2-yl)-2-methylpiperidin-1-yl)-1H-pyrazol-1-yl)-2-methylpropan-2-ol]	0.3	20.7
COc1cccc2c1nc(N)n1nc(C3CCC(C)N(c4cnn(C5CC5)c4)C3)nc21 (single isomer, unassigned) [Example 141C]	1	12
CCn1cc(N2C[C@H](c3nc4c5cccc(OC)c5nc(N)n4n3)CC[C@H]2C)cn1 [Example 140B]	1.3	758
COc1cccc2c1nc(N)n1nc([C@@H]3CCCN(c4cnn([C@H]5C[C@@](C)(O)C5)c4)C3)nc21 [Example 35, (R)-3-(4-(3-(5-amino-7-methoxy-[1,2,4]triazolo[1,5-c]quinazolin-2-yl)piperidin-1-yl)-1H-pyrazol-1-yl)-1-methylcyclobutan-1-ol]	0.7	41.9
COc1cccc2c1nc(N)n1nc([C@@H]3CCCN(c4nn(CC(C)(C)O)cc4C(F)(F)F)C3)nc21 [Example 62, (R)-1-(3-(3-(5-amino-7-methoxy-[1,2,4]triazolo[1,5-c]quinazolin-2-yl)piperidin-1-yl)-4-(trifluoromethyl)-1H-pyrazol-1-yl)-2-methylpropan-2-ol]	0.3	631
COc1ccc2c(c1)nc(N)n1nc([C@@H]3C[C@H](C)CN(c4cnn(CC(C)(C)O)c4)C3)nc21 (single isomer, unassigned) [Example 195D]	0.8	84.9
Cn1cc(N2CCCC(c3nc4c5c(F)ccc(F)c5nc(N)n4n3)C2)cn1 (single isomer, unassigned) [Example 172, (R or S)-7,10-difluoro-2-(1-(1-methyl-1H-pyrazol-4-yl)piperidin-3-yl)-[1,2,4]triazolo[1,5-c]quinazolin-5-amine]	34.2	375
COc1cccc2c1nc(N)n1nc([C@@H]3CCCN(c4nccnc4C)C3)nc21 [Example 101, (R)-7-methox-2-(1-(3-methylpyrazin-2-yl)piperidin-3-yl)-[1,2,4]triazolo[1,5-c]quinazolin-5-amine]	0.5	178
COc1cccc2c1nc(N)n1nc([C@@H]3CCCN(c4ccc(C(C)C)nn4)C3)nc21 [Example 107, (R)-2-(1-(6-isopropylpyridazin-3-yl)piperidin-3-yl)-7-methoxy-[1,2,4]triazolo[1,5-c]quinazolin-5-amine]	2.1	275
COc1cccc2c1nc(N)n1nc([C@H]3CCC4CCC3N4c3cnn(C)c3)nc21 (mixture of isomers) [Example 130A]	5.8	7020
CCNC(=O)C(C)(C)n1cc(N2CCC[C@@H](c3nc4c5cccc(OC)c5nc(N)n4n3)C2)cn1 [Example 36, (R)-2-(4-(3-(5-amino-7-methoxy-[1,2,4]triazolo[1,5-c]quinazolin-2-yl)piperidin-1-yl)-1H-pyrazol-1-yl)-N-ethyl-2-methylpropanamide]	1.8	1.7
